According to the supplement of paper PMC10307832:

Assays:
Experiment in all cases: relative viability (nuclei count vs DMSO), 5 days (fraction); higher = more cells survive
NCI-H647 = tested on: NCI-H647
Outline: (§1)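 A single step with final 0.05% Triton X-100, 1% formaldehyde and 1 ug/ml Hoechst fixed the cells and stained nuclei 5 days after treatment. Lung cancer cell lines in 1536-well plates had been treated by pin tool the day after seeding with one drug alone or a fixed anchor-drug dose plus five library-drug doses (not always all listed) in √10 steps, and nuclei were counted on 4× images. Relative viability is the ratio of nuclei in treated wells to nuclei in vehicle wells, taken as the median of duplicate plates.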

NCI-H1355 = tested on: NCI-H1355
Outline: as §1

NCI-H1792 = tested on: NCI-H1792
Outline: as §1

NCI-H522 = tested on: NCI-H522
Outline: as §1

SK-LU-1 = tested on: SK-LU-1
Outline: as §1

HARA = tested on: HARA
Outline: as §1

EKVX = tested on: EKVX
Outline: as §1

NCI-H661 = tested on: NCI-H661
Outline: as §1

NCI-H2009 = tested on: NCI-H2009
Outline: as §1

LOU-NH91 = tested on: LOU-NH91
Outline: as §1

SK-MES-1 = tested on: SK-MES-1
Outline: as §1

NCI-H2170 = tested on: NCI-H2170
Outline: as §1

NCI-H2342 = tested on: NCI-H2342
Outline: as §1

NCI-H1734 = tested on: NCI-H1734
Outline: as §1

NCI-H2087 = tested on: NCI-H2087
Outline: as §1

NCI-H2405 = tested on: NCI-H2405
Outline: as §1

NCI-H1993 = tested on: NCI-H1993
Outline: as §1

NCI-H1437 = tested on: NCI-H1437
Outline: as §1

BEN = tested on: BEN
Outline: as §1

HCC-827 = tested on: HCC-827
Outline: as §1

HCC-366 = tested on: HCC-366
Outline: as §1

NCI-H1395 = tested on: NCI-H1395
Outline: as §1

## Cc1sc2c(c1C)C(c1ccc(Cl)cc1)=N[C@@H](CC(=O)OC(C)(C)C)c1nnc(C)n1-2 [JQ1] + N=C(N)NC(=N)NCCc1ccccc1 [Phenformin] (partner 250 µM)
NCI-H647; first compound 0.04 µM
  relative viability: 0.433
NCI-H647; first compound 0.1265 µM
  relative viability: 0.306
NCI-H647; first compound 0.4 µM
  relative viability: 0.229
NCI-H647; first compound 1.265 µM
  relative viability: 0.0637
NCI-H647; first compound 4 µM
  relative viability: 0.0562
NCI-H1355; first compound 0.04 µM
  relative viability: 0.45
NCI-H1355; first compound 0.1265 µM
  relative viability: 0.473
NCI-H1355; first compound 0.4 µM
  relative viability: 0.433
NCI-H1355; first compound 1.265 µM
  relative viability: 0.388
NCI-H1355; first compound 4 µM
  relative viability: 0.326
NCI-H1792; first compound 0.04 µM
  relative viability: 0.323
NCI-H1792; first compound 0.1265 µM
  relative viability: 0.19
NCI-H1792; first compound 0.4 µM
  relative viability: 0.232
NCI-H1792; first compound 1.265 µM
  relative viability: 0.106
NCI-H1792; first compound 4 µM
  relative viability: 0.0948
NCI-H522; first compound 0.04 µM
  relative viability: 0.656
NCI-H522; first compound 0.1265 µM
  relative viability: 0.615
NCI-H522; first compound 0.4 µM
  relative viability: 0.55
NCI-H522; first compound 1.265 µM
  relative viability: 0.519
NCI-H522; first compound 4 µM
  relative viability: 0.323
SK-LU-1; first compound 0.04 µM
  relative viability: 0.607
SK-LU-1; first compound 0.1265 µM
  relative viability: 0.386
SK-LU-1; first compound 0.4 µM
  relative viability: 0.458
SK-LU-1; first compound 1.265 µM
  relative viability: 0.171
SK-LU-1; first compound 4 µM
  relative viability: 0.136
HARA; first compound 0.04 µM
  relative viability: 0.465
HARA; first compound 0.1265 µM
  relative viability: 0.236
HARA; first compound 0.4 µM
  relative viability: 0.484
HARA; first compound 1.265 µM
  relative viability: 0.173
HARA; first compound 4 µM
  relative viability: 0.186
EKVX; first compound 0.04 µM
  relative viability: 0.257
EKVX; first compound 0.1265 µM
  relative viability: 0.257
EKVX; first compound 0.4 µM
  relative viability: 0.27
EKVX; first compound 1.265 µM
  relative viability: 0.243
EKVX; first compound 4 µM
  relative viability: 0.218
NCI-H661; first compound 0.04 µM
  relative viability: 0.264
NCI-H661; first compound 0.1265 µM
  relative viability: 0.315
NCI-H661; first compound 0.4 µM
  relative viability: 0.286
NCI-H661; first compound 1.265 µM
  relative viability: 0.302
NCI-H661; first compound 4 µM
  relative viability: 0.282
NCI-H2009; first compound 0.04 µM
  relative viability: 0.477
NCI-H2009; first compound 0.1265 µM
  relative viability: 0.339
NCI-H2009; first compound 0.4 µM
  relative viability: 0.291
NCI-H2009; first compound 1.265 µM
  relative viability: 0.205
NCI-H2009; first compound 4 µM
  relative viability: 0.223
LOU-NH91; first compound 0.04 µM
  relative viability: 0.735
LOU-NH91; first compound 0.1265 µM
  relative viability: 0.555
LOU-NH91; first compound 0.4 µM
  relative viability: 0.384
LOU-NH91; first compound 1.265 µM
  relative viability: 0.328
LOU-NH91; first compound 4 µM
  relative viability: 0.326
SK-MES-1; first compound 0.04 µM
  relative viability: 0.672
SK-MES-1; first compound 0.1265 µM
  relative viability: 0.496
SK-MES-1; first compound 0.4 µM
  relative viability: 0.428
SK-MES-1; first compound 1.265 µM
  relative viability: 0.307
SK-MES-1; first compound 4 µM
  relative viability: 0.199
NCI-H2170; first compound 0.04 µM
  relative viability: 0.408
NCI-H2170; first compound 0.1265 µM
  relative viability: 0.394
NCI-H2170; first compound 0.4 µM
  relative viability: 0.402
NCI-H2170; first compound 1.265 µM
  relative viability: 0.354
NCI-H2170; first compound 4 µM
  relative viability: 0.315
NCI-H2342; first compound 0.04 µM
  relative viability: 0.604
NCI-H2342; first compound 0.1265 µM
  relative viability: 0.57
NCI-H2342; first compound 0.4 µM
  relative viability: 0.694
NCI-H2342; first compound 1.265 µM
  relative viability: 0.809
NCI-H2342; first compound 4 µM
  relative viability: 0.663
NCI-H1734; first compound 0.04 µM
  relative viability: 0.326
NCI-H1734; first compound 0.1265 µM
  relative viability: 0.312
NCI-H1734; first compound 0.4 µM
  relative viability: 0.336
NCI-H1734; first compound 1.265 µM
  relative viability: 0.251
NCI-H1734; first compound 4 µM
  relative viability: 0.23
NCI-H2087; first compound 0.04 µM
  relative viability: 0.52
NCI-H2087; first compound 0.1265 µM
  relative viability: 0.406
NCI-H2087; first compound 0.4 µM
  relative viability: 0.406
NCI-H2087; first compound 1.265 µM
  relative viability: 0.266
NCI-H2087; first compound 4 µM
  relative viability: 0.273
NCI-H2405; first compound 0.04 µM
  relative viability: 0.381
NCI-H2405; first compound 0.1265 µM
  relative viability: 0.224
NCI-H2405; first compound 0.4 µM
  relative viability: 0.385
NCI-H2405; first compound 1.265 µM
  relative viability: 0.239
NCI-H2405; first compound 4 µM
  relative viability: 0.223
NCI-H1993; first compound 0.04 µM
  relative viability: 0.49
NCI-H1993; first compound 0.1265 µM
  relative viability: 0.55
NCI-H1993; first compound 0.4 µM
  relative viability: 0.561
NCI-H1993; first compound 1.265 µM
  relative viability: 0.557
NCI-H1993; first compound 4 µM
  relative viability: 0.572
NCI-H1437; first compound 0.04 µM
  relative viability: 0.274
NCI-H1437; first compound 0.1265 µM
  relative viability: 0.267
NCI-H1437; first compound 0.4 µM
  relative viability: 0.279
NCI-H1437; first compound 1.265 µM
  relative viability: 0.222
NCI-H1437; first compound 4 µM
  relative viability: 0.271
BEN; first compound 0.04 µM
  relative viability: 0.273
BEN; first compound 0.1265 µM
  relative viability: 0.296
BEN; first compound 0.4 µM
  relative viability: 0.303
BEN; first compound 1.265 µM
  relative viability: 0.309
BEN; first compound 4 µM
  relative viability: 0.215
HCC-827; first compound 0.04 µM
  relative viability: 0.395
HCC-827; first compound 0.4 µM
  relative viability: 0.349
HCC-827; first compound 1.265 µM
  relative viability: 0.468
HCC-827; first compound 4 µM
  relative viability: 0.449
HCC-366; first compound 0.04 µM
  relative viability: 0.699
HCC-366; first compound 0.4 µM
  relative viability: 0.614
HCC-366; first compound 1.265 µM
  relative viability: 0.412
HCC-366; first compound 4 µM
  relative viability: 0.376
NCI-H1395; first compound 0.04 µM
  relative viability: 0.439
NCI-H1395; first compound 0.1265 µM
  relative viability: 0.417
NCI-H1395; first compound 0.4 µM
  relative viability: 0.478
NCI-H1395; first compound 1.265 µM
  relative viability: 0.455
NCI-H1395; first compound 4 µM
  relative viability: 0.396
